This assay has as its system HepaRG cells. Description: 15N urea enrichment (conversion of ammonia into urea) in HepaRG monolayer cultures. The class given is cell-based, human. The following applies: for 15N urea enrichment: 1 mM CG in preincubation and in testmedium (++). As for the experimental part:
For testing, the cells are seeded in 6-well and 24-well culture plates (Corning) in HepaRG media with different FBS batches or other differences in medium composition. After a 2 weeks proliferation phase, 2% of DMSO will be added to half of the cultures. After another 2 weeks of culturing, the confluence and morphology of the cultures will be assessed microscopically. Furthermore the +DMSO and −DMSO cell cultures in the 24-well plates will be tested for biochemical activity, i.e. urea production, ammonia elimination and protein content. The cultured cells are washed twice using phosphate buffered saline (PBS, NBPI International) and then incubated with test medium consisting of HepaRG culture medium supplemented with 1.5 mM ^15NH4Cl (Sigma), 2.75 mM D-galactose (Sigma), 2 mM ornithine hydrochloride (Sigma) and 2 mM L-lactate (Sigma). Medium samples are taken after 1 hr from the culture wells, as a reference, and after 24 hours. At the end of the test period the cells are washed three times using PBS and stored at −20° C. for protein determination. From the changes in concentration at t=1 hr and 24 hr of urea and ammonia an activity per hour and per mg protein/well is calculated. Quality of the cell-loaded bioreactors, measured by hepatocyte function at the start of the treatment, will be compared with values of primary hepatocytes that have been tested extensively in vitro in the past.
^15N Urea: Single and Double labelled urea is measured in the test medium samples using mass-spectrometry.
The HepaRG cells are cultured as indicated above in 24 well in presence or absence of 1 mM CG during the last 5 days. Next the cells are tested as indicated above in presence or absence of CG during 24 hours. To determine the conversion of ammonia into urea, the ^15N urea enrichment (single and double labeled) is measured in the test samples using mass-spectrometry. Similarly, HepG2 and cBAL111 cells were tested for their response to CG.

On to `NC(=O)N[C@@H](CCC(=O)O)C(=O)O` [CG, carbamoyl glutamate], for which the 15N urea enrichment is recorded as 7.8 ± 2.4 % of total urea produced (HepaRG + DMSO) and 24.4 ± 4.1 % of total urea produced (HepaRG − DMSO). Moreover, the “increase of % of urea of the total urea produced from ammonia” value (HepaRG −DMSO cells, CG treatment) is reported as “four-fold”.

The values are drawn from patent US8921108B2, “Differentiated human liver cell cultures and their use in bioartificial liver systems” (Academisch Ziekenhuis Bij de Universiteit van Amsterdam, priority 2009, dated 2014).
